From patent publication US9777070B2, “Anti-PTK7 antibody-drug conjugates” (Pfizer Inc., priority 2014, dated 2017)

What was measured:
[1] = test system: Breast-22 (BR22) TNBC PDX; test: In vivo efficacy, PDX tumor growth; set-up: species or system human tumor in NOD/SCID mice
Excerpt: (§1) The effects of anti-PTK7 antibody-drug conjugates were further evaluated on the in vivo growth of human tumor patient-derived xenografts (PDX). Primary tumor resection samples were procured from clinical sites following Institutional Review Board for the Protection of Human Subjects approval and in accordance with HIPAA regulations. Tumor fragments were stored and shipped in Hypothermasol (Biolife Solutions) on ice and were embedded in Matrigel (BD) containing a proprietary mix of growth factors and implanted subcutaneously into the mammary fatpad of female NOD/SCID mice within 24 hours of resection. Mice were monitored for health status daily and for tumor growth initially by visual inspection twice per week. Once the tumors were palpable, measurements of tumor volume began to track tumor growth and estimate cell doubling time. Tumor volume was estimated using the equation V=(A*B^2)/2 where A is the long axis and B is the short axis. When tumors reached a volume of 500 mm^3 to 1,500 mm^3, they were harvested for study and for re-transplant as a patient-derived xenograft (PDX). Depending on the line, mechanical and/or chemical dissociation can be used to separate the individual cells for passage. Live cells were inoculated into naïve animals with 10,000 to 50,000 cells per animals
(§2) For efficacy studies, tumors were harvested from passaging studies and cells were dissociated into single cell suspension. Preparations were counted for live cells using Trypan blue exclusion and 10,000 to 50,000 cells were inoculated per mouse in Matrigel. […] Tumor growth was initially followed by palpability with measurements beginning once tumor volumes reached about 30 mm^3. Studies were randomized based on tumor size once a cohort of tumor-bearing mice reached 140 mm^3 to 180 mm^3. Animals were dosed by intraperitoneal injection twice a week for two weeks (q4dx4). Study groups were followed until individual mice or entire group tumor measurements reached 1200 mm^3 when sacrifice was indicated in accordance with IACUC protocol. For selected dosing studies, pharmacokinetic submandibular bleeds were performed at 2 hours, 36 hours and 72 hours. A volume of 10 μL of blood was immediately pipetted into 90 μL of HBS-P (GE Healthcare). Samples were stored at −80° C. prior to analysis. For each tumor measurement the tumor volume±standard error of the mean (SEM) is provided. GT=Group Terminated due to large tumor size.
(§3) Animals were dosed every four days for four cycles (Q4Dx4) by intraperitoneal injection except the BR5 study which was by intravenous injection on the same schedule. Tumor measurements were recorded one or two times per week using digital calipers and tumor volume was estimated using the equation V=(A×B^2)/2 where A is the long axis and B is the short axis. Animal body weights were measured and recorded at least once a week. Study groups were followed until individual mice or entire group tumor measurements reached 1200 mm^3 at which point sacrifice was indicated in accordance with IACUC protocol. For the BR5 study, animals were sacrificed once tumor volume approached 15% of the body weight at staging in accordance with IACUC protocol.
(§4) Tumor growth inhibition (TGI) was calculated using the equation % TGI=[1−(mean tumor volume of treated)/(mean tumor volume of vehicle)]. […] Tumor regression was defined as a reduction in mean tumor volume after dosing. In cases where tumors regressed, Time To Progression (TTP) indicates the number of days between the first does and the time at which mean tumor volume increased from the previous measurement to a statistically significant degree.

[2] = test system: Breast-31 (BR31) TNBC PDX; test: In vivo efficacy, PDX tumor growth; set-up: species or system human tumor in NOD/SCID mice
Excerpt: as §1, §2, §3, §4

[3] = test system: Breast-64 (BR64) TNBC PDX; test: In vivo efficacy, PDX tumor growth; set-up: species or system human tumor in NOD/SCID mice; conditions: 20 mg/kg
Excerpt: as §1, §2, §3
(§5) Tumor growth inhibition (TGI) was calculated using the equation % TGI=[1−(mean tumor volume of treated)/(mean tumor volume of vehicle)]. TGI was calculated at the latest possible time point, which was typically the last measurement before the control group was discontinued as described above. Tumor regression was defined as a reduction in mean tumor volume after dosing. In cases where tumors regressed, Time To Progression (TTP) indicates the number of days between the first does and the time at which mean tumor volume increased from the previous measurement to a statistically significant degree.

BR13 TNBC breast tumors = test: Tumor-initiating cell (TIC) frequency by limit dilution analysis after in vivo treatment; set-up: species or system human tumor in mice; conditions: for # Animals with tumors: 20 mpk
Description: To determine whether anti-PTK7 antibody-drug conjugate treatments reduced tumor-initiating cell (TIC) frequency in tumors, BR13 TNBC breast tumors were treated with 4 mg/kg hu24-vc0101 ADC, 4 mg/kg control IgG ADC, or 20 mg/kg docetaxel chemotherapy twice weekly for a total of 3 doses (Days 0, 3 & 7). Live, residual human tumor cells (i.e. hESA^+ mCD45^− mH-2Kd^−) were isolated from dissociated tumors at day 10 and re-implanted into naïve animals in a limit dilution analysis (LDA). Resulting tumor incidence was monitored for up to 40 weeks post-transplant. The day of tumor harvest (day 10) and serial transplantation was chosen based on when tumors were starting to regress following hu24-vc0101 exposure. Tumors were dissociated and stained with anti-human ESA, anti-mouse CD45, and anti-mouse H-2Kd antibodies. Three tumors per treatment group were pooled, and live human tumor cells were sorted by flow cytometry. Groups of 10 mice were injected with either 293, 73, 37 or 15 tumor cells sorted from control IgG ADC treated tumors; 159, 90, 40 or 10 tumor cells sorted from hu24-vc0101 treated tumors; or 257, 33 or 15 tumor cells sorted from docetaxel-treated tumors. Tumors in recipient mice were measured weekly and tumors that exceeded 200 mm^3 in recipient mice were scored as positive. Using Poisson distribution statistics, via L-Calc software (Stemcell Technologies, Vancouver, BC), injected cell doses of recipients with and without tumors by 40 weeks post-transplant were used to calculate the frequency of TIC after each treatment.

[4] = test system: Breast-13 (BR13) triple-negative breast cancer (TNBC) PDX; test: In vivo efficacy, PDX tumor growth; set-up: species or system human tumor in NOD/SCID mice; conditions: 1 mg/kg
Excerpt: as §1, §2, §3, §5

[5] = test system: non-small cell lung cancer-176 (LU176) PDX; test: In vivo efficacy, PDX tumor growth; set-up: species or system human tumor in NOD/SCID mice; conditions: 5 mg/kg
Excerpt: as §1, §2, §3, §5

[6] = test system: non-small cell lung cancer-135 (LU135) PDX; test: In vivo efficacy, PDX tumor growth; set-up: species or system human tumor in NOD/SCID mice; conditions: 20 mg/kg
Excerpt: as §1, §2, §3, §5

CC(=O)O[C@@]12CO[C@@H]1C[C@H](O)[C@@]1(C)C(=O)[C@H](O)C3=C(C)[C@@H](OC(=O)[C@H](O)[C@@H](NC(=O)OC(C)(C)C)c4ccccc4)C[C@@](O)([C@@H](OC(=O)c4ccccc4)[C@H]21)C3(C)C [docetaxel, reference compound]
tumor volume ± SEM ([1]; 20 mg/kg, Day 0): 182 ± 21 mm^3
tumor volume ± SEM ([1]; 20 mg/kg, Day 7): 154 ± 23 mm^3
tumor volume ± SEM ([1]; 20 mg/kg, Day 14): 107 ± 51 mm^3
tumor volume ± SEM ([1]; 20 mg/kg, Day 21): 218 ± 98 mm^3
tumor volume ± SEM ([1]; 20 mg/kg, Day 28): 418 ± 165 mm^3
tumor volume ± SEM ([1]; 20 mg/kg, Day 35): 1191 ± 264 mm^3
tumor volume ± SEM ([2]; 20 mg/kg, Day 0): 259 ± 47 mm^3
tumor volume ± SEM ([2]; 20 mg/kg, Day 7): 331 ± 70 mm^3
tumor volume ± SEM ([2]; 20 mg/kg, Day 14): 371 ± 82 mm^3
tumor volume ± SEM ([2]; 20 mg/kg, Day 21): 451 ± 91 mm^3
tumor volume ± SEM ([2]; 20 mg/kg, Day 28): 510 ± 103 mm^3
tumor volume ± SEM ([2]; 20 mg/kg, Day 35): 614 ± 117 mm^3
tumor volume ± SEM ([2]; 20 mg/kg, Day 42): 790 ± 117 mm^3
tumor volume ± SEM ([2]; 20 mg/kg, Day 49): 837 ± 126 mm^3
tumor volume ± SEM ([2]; 20 mg/kg, Day 63): 1131 ± 148 mm^3
tumor volume ± SEM ([2]; 20 mg/kg, Day 70): 1317 ± 182 mm^3
tumor volume ± SEM ([3]; Day 0): 543 ± 46 mm^3
tumor volume ± SEM ([3]; Day 7): 1112 ± 97 mm^3
tumor volume ± SEM ([3]; Day 14): 1805 ± 206 mm^3
TIC frequency, fold lower than in control IgG ADC treated tumors (BR13 TNBC breast tumors; BR13, 20 mg/kg, Days 0, 3 & 7, tumors harvested day 10, p=0.09): 2.1 fold
# Animals with tumors (BR13 TNBC breast tumors; Group C1, 257 cells implanted per animal, 9 animals in group): 8
# Animals with tumors (BR13 TNBC breast tumors; Group C2, 33 cells implanted per animal, 8 animals in group): 1
# Animals with tumors (BR13 TNBC breast tumors; Group C3, 15 cells implanted per animal, 6 animals in group): 0

COc1cccc2c1C(=O)c1c(O)c3c(c(O)c1C2=O)C[C@@](O)(C(=O)CO)C[C@@H]3O[C@H]1C[C@H](N)[C@H](O)[C@H](C)O1 [Doxorubicin, doxorubicin, reference compound]
tumor volume ± SEM ([1]; Day 0, 1.5 mg/kg): 297 ± 17 mm^3
tumor volume ± SEM ([1]; Day 14, 1.5 mg/kg): 641 ± 39 mm^3
tumor volume ± SEM ([2]; 1.5 mg/kg, Day 0): 160 ± 11 mm^3
tumor volume ± SEM ([2]; 1.5 mg/kg, Day 7): 304 ± 20 mm^3
tumor volume ± SEM ([2]; 1.5 mg/kg, Day 28): 759 ± 111 mm^3
tumor volume ± SEM ([4]; Day 0): 156 ± 13 mm^3
tumor volume ± SEM ([4]; Day 7): 219 ± 29 mm^3
tumor volume ± SEM ([4]; Day 14): 295 ± 39 mm^3
tumor volume ± SEM ([4]; Day 21): 353 ± 45 mm^3
tumor volume ± SEM ([4]; Day 28): 432 ± 50 mm^3
tumor volume ± SEM ([4]; Day 35): 696 ± 84 mm^3
tumor volume ± SEM ([4]; Day 42): 1001 ± 159 mm^3

N.N.[Cl][Pt][Cl] [cisplatin, reference compound]
tumor volume ± SEM ([5]; Day 0): 259 ± 26 mm^3
tumor volume ± SEM ([5]; Day 7): 124 ± 30 mm^3
tumor volume ± SEM ([5]; Day 14): 97 ± 22 mm^3
tumor volume ± SEM ([5]; Day 21): 102 ± 24 mm^3
tumor volume ± SEM ([5]; Day 28): 179 ± 71 mm^3
tumor volume ± SEM ([5]; Day 35): 207 ± 69 mm^3
tumor volume ± SEM ([5]; Day 42): 297 ± 97 mm^3
tumor volume ± SEM ([5]; Day 49): 619 ± 262 mm^3

CC(=O)O[C@H]1C(=O)[C@@]2(C)[C@H]([C@H](OC(=O)c3ccccc3)[C@]3(O)C[C@H](OC(=O)[C@H](O)[C@@H](NC(=O)c4ccccc4)c4ccccc4)C(C)=C1C3(C)C)[C@]1(OC(C)=O)CO[C@@H]1C[C@@H]2O [paclitaxel, reference compound]
tumor volume ± SEM ([6]; Day 0): 175 ± 24 mm^3
tumor volume ± SEM ([6]; Day 7): 77 ± 13 mm^3
tumor volume ± SEM ([6]; Day 14): 58 ± 12 mm^3
tumor volume ± SEM ([6]; Day 21): 60 ± 11 mm^3
tumor volume ± SEM ([6]; Day 28): 93 ± 20 mm^3
tumor volume ± SEM ([6]; Day 35): 110 ± 31 mm^3
tumor volume ± SEM ([6]; Day 42): 184 ± 48 mm^3
tumor volume ± SEM ([6]; Day 49): 284 ± 78 mm^3
tumor volume ± SEM ([6]; Day 56): 384 ± 106 mm^3
tumor volume ± SEM ([6]; Day 63): 538 ± 178 mm^3
tumor volume ± SEM ([6]; Day 70): 667 ± 174 mm^3
tumor volume ± SEM ([6]; Day 77): 724 ± 171 mm^3
